Measurements taken from EPA's ToxValDB 9.5.
“And” between values parts separate entries of the source, which are not always exact repeats. Identical values can stand only once.

Experiments:
Canidae = details: chronic; duration: 9 months; oral; diet; M/F; Beagle; no effects
[1] = subchronic, duration: 90 days, clinical chemistry
[2] = subchronic, duration: 90 days, oral, diet, M/F, Wistar, no effects
[3] = subchronic, duration: 90 days, oral, M/F, Sprague-Dawley, histopathology: neoplastic
[4] = subchronic, duration: 90 days, oral, diet, M/F, Sprague-Dawley, histopathology: nonneoplastic
[5] = subchronic, duration: 90 days, oral, gavage, M, hematological
[6] = subchronic, duration: 90 days, no effects
[7] = subchronic, duration: 90 days, oral

C=CO.OCCO
NOAEL (Canidae): 800 mg/kg-day

Cc1noc(C)c1Cn1cc(N2C(=O)CN(Cc3cccc(O)c3)C2=O)cn1
NOAEL (Rattus norvegicus; subchronic, duration: 13 weeks, oral, diet, no effects): 100 mg/kg-day

Cc1ccc(OCC(=O)N(Cc2cccs2)c2ccn[nH]2)cc1
NOAEL (Rattus norvegicus; reproduction developmental, oral, gavage, F, no effects): 1000 mg/kg-day | NOAEL (Rattus norvegicus; subchronic, duration: 13 weeks, oral, gavage, M/F, no effects): 100 mg/kg-day

COc1ccc(C=CC(=O)NCCc2ccc(OC)c(OC)c2)cc1OC
NOAEL (Rattus norvegicus; subchronic, duration: 90 days, oral, diet, M/F, Sprague-Dawley, hematological): 23 mg/kg-day

CC(C)[C@@H]1CC[C@@H](C)C[C@@H]1NC(=O)C1CC1
NOAEL (Rattus norvegicus; subchronic, duration: 90 days, oral, diet, M/F, Sprague-Dawley, body weight): 147 mg/kg-day

CC1SCCSS1 (stereo unspecified) [1,2,4-Trithiane, 3-methyl-]
NOEL (Rattus norvegicus; subchronic, duration: 13 weeks, oral, diet): 0.3 mg/kg-day

COc1cccc(OC)c1 [1,3-Dimethoxybenzene]
NOAEL (Rattus norvegicus; subchronic, duration: 90 days, oral, no effects): 10 mg/kg-day

SCCCCS [1,4-Butanedithiol]
NOAEL (Rattus norvegicus; subchronic, duration: 90 days, oral, diet, M/F, Sprague-Dawley, no effects): 0.703 mg/kg-day (5×) and 0.705 mg/kg-day (5×)

CCCCCO [1-Pentanol]
NOAEL (Rattus norvegicus; subchronic, duration: 90 days, oral, gavage, no effects): 1000 mg/kg-day

Clc1ccc(-c2ccc(Cl)c(Cl)c2Cl)c(Cl)c1Cl [2,2',3,3',4,4'-Hexachlorobiphenyl]
NOAEL (Rattus norvegicus; [1]): 0.8 mg/kg-day

Clc1cc(Cl)c(-c2cc(Cl)c(Cl)cc2Cl)cc1Cl [2,2',4,4',5,5'-Hexachlorobiphenyl]
NOAEL (Rattus norvegicus; [1]): 1.2 mg/kg-day

CC1COC(C)O1 (stereo unspecified) [2,4-Dimethyl-1,3-dioxolane]
NOEL (Rattus norvegicus; chronic, duration: 2 years): 2500 mg/kg-day

CSSc1cc(C)oc1C [2,5-Dimethyl-3-(methyldisulfanyl)furan]
NOAEL (Rattus norvegicus; [2]): 5 mg/kg-day

O=C(O)c1ccc(C(=O)O)o1 [2,5-Furandicarboxylic acid]
NOAEL (Rattus norvegicus; subchronic, duration: 90 days, oral, gavage, M/F, Wistar, body weight): 300 mg/kg-day

CC(=O)c1ccc[nH]1 [2-Acetylpyrrole]
NOAEL (Rattus norvegicus; [3]): 0.048 mg/kg-day | NOAEL (Rattus norvegicus; [4]): 48 mg/kg-day | NOAEL (Rattus norvegicus; [5]): 48 mg/kg-day

CC(=O)c1nccs1 [2-Acetylthiazole]
NOAEL (Rattus norvegicus; subchronic, duration: 90 days, oral, diet, body weight): 50 mg/kg-day

CCCCC(CC)COC(=O)c1ccc(N(C)C)cc1 (stereo unspecified) [2-Ethylhexyl 4-(dimethylamino)benzoate]
NOAEL (Rattus norvegicus; short-term, duration: 4 weeks, M/F, histopathology: nonneoplastic): 100 mg/kg-day

Cc1occc1S [2-Methyl-3-furanthiol]
NOAEL (Rattus norvegicus; [6]): 5 mg/kg-day

CC1OCCC1=O (stereo unspecified) [2-Methyltetrahydrofuran-3-one]
NOAEL (Rattus norvegicus; [6]): 91 mg/kg-day

CCCC(C)=O [2-Pentanone]
NOAEL (Rattus norvegicus; subchronic, duration: 13 weeks, oral, gavage, M/F, organ weight): 20 mg/kg-day

CCC(=O)c1ccc[nH]1 [2-Propionylpyrrole]
NOAEL (Rattus norvegicus; [3]): 0.048 mg/kg-day | NOAEL (Rattus norvegicus; [5]): 48 mg/kg-day

SCc1ccccn1 [2-Pyridinemethanethiol]
NOAEL (Rattus norvegicus; subchronic, duration: 90 days, oral, diet): 3.4 mg/kg-day

CSSSCc1ccco1 [2-[(Methyltrisulfanyl)methyl]furan]
NOAEL (Rattus norvegicus; [2]): 0.56 mg/kg-day

C/C=C/C=C/C(=O)O [2E,4E-Hexadienoic acid]
NOAEL (Rattus norvegicus; reproduction developmental, oral, gavage, M/F, Crj:CD, body weight): 300 mg/kg-day

O=C1CCc2ccccc2O1 [3,4-Dihydrocoumarin]
NOAEL (Rattus norvegicus; chronic, duration: 2 years, oral, gavage): 300 mg/kg-day | NOAEL (Rattus norvegicus; subchronic, duration: 13 weeks): 150 mg/kg-day | NOAEL (Rattus norvegicus; subchronic, duration: 13 weeks, hematological): 150 mg/kg-day

OCCc1ccc(O)c(O)c1 [3,4-Dihydroxyphenylethanol]
NOAEL (Rattus norvegicus; subchronic, duration: 90 days, oral, gavage, M/F, body weight): 50 mg/kg-day | NOAEL (Rattus norvegicus; subchronic, duration: 90 days, oral, gavage, Wistar, body weight): 250 mg/kg-day

C=C=CC(C)C(=O)OCC (stereo unspecified) [3,4-Pentadienoic acid, 2-methyl-, ethyl ester]
NOAEL (Rattus norvegicus; chronic, duration: 92 days): 1 mg/kg-day

CCC=C1OC(=O)c2ccccc21 [3-Propylidenephthalide]
NOAEL (Rattus norvegicus; [7]): 5.42 mg/kg-day

Cc1occc1SC(C)CC=O (stereo unspecified) [3-[(2-Methylfuran-3-yl)sulfanyl]butanal]
NOAEL (Rattus norvegicus; subchronic, duration: 90 days, oral, diet, M/F, no effects): 3.76 mg/kg-day

C/C=C/C=C\CC/C=C/C(=O)NCC(C)C [(E,Z,E)-N-(2-Methylpropyl)-2,6,8-decatrienamide]
NOAEL (Rattus norvegicus; [4]): 23.4 mg/kg-day

C=CCN=C=S [Allyl isothiocyanate]
LOAEL (Rattus norvegicus; chronic, duration: 103 weeks, oral, gavage, M, histopathology: nonneoplastic): 9 mg/kg-day | NOAEL (Rattus norvegicus; chronic, duration: 721 days, oral, gavage, M/F, histopathology: neoplastic): 12 mg/kg-day

CSCc1ccccc1 [Benzyl methyl sulfide]
NOAEL (Rattus norvegicus; [7]): 0.43 mg/kg-day

CCC[CH2][Sn]([CH2]CCC)([CH2]CCC)[O][Sn]([CH2]CCC)([CH2]CCC)[CH2]CCC [Bis(tributyltin)oxide]
NOAEL (Rattus norvegicus; chronic, duration: 2 years, oral, diet, M/F, Wistar, histopathology: neoplastic): 0.025 mg/kg-day
